Measured values reported in US9790169B2, “IDO inhibitors” (BRISTOL-MYERS SQUIBB COMPANY, priority 2015, dated 2017).

The molecules below were run against human IDO1 (Homo sapiens, UniProt P14902) (assay: Assessment of human IDO-1 inhibitory activity in HEK cells (human IDO1/HEK293 cells, kynurenine read-out with Ehrlich reagent, absorbance 490 nm)). Conditions: HEK Human IDO-1 cellular assay.
Format: cell-based
Set-up: expressed in transfected cells
Method: Exemplary compounds were tested for inhibition of IDO activity.
Assessment of Human IDO-1 Inhibitory Activity in HEK Cells
HEK293 cells were transfected with a pCDNA-based mammalian expression vector harboring human IDO1 cDNA (NM 002164.2) by electroporation. They were cultured in medium (DMEM with 10% FBS) containing 1 mg/ml G418 for two weeks. Clones of HEK293 cells that stably expressed human IDO1 protein were selected and expanded for IDO inhibition assay.
The human IDO1/HEK293 cells were seeded at 10,000 cells per 50 μL per well with RPMI/phenol red free media contains 10% FBS in a 384-well black wall clear bottom tissue culture plate (Matrix Technologies LLC) 100 nL of certain concentration of compound was then added to each well using ECHO liquid handling systems. The cells were incubated for 20 hours in 37° C. incubator with 5% CO2.
The compound treatments were stopped by adding trichloroacetic acid (Sigma-Aldrich) to a final concentration at 0.2%. The cell plate was further incubated at 50° C. for 30 minute. The equal volume supernatant (20 μL) and 0.2% (w/v) Ehrlich reagent (4-dimethylaminobenzaldehyde, Sigma-Aldrich) in glacial acetic acid were mixed in a new clear bottom 384-well plate. This plate was then incubated at room temperature for 30 minute. The absorbance at 490 nm was measured on Envision plate reader.
Compound IC50 values were calculated using the counts of 500 nM of a reference standard treatment as one hundred percent inhibition, and counts of no compound but DMSO treatment as zero percent inhibition.

Sequence of human IDO1 (P14902 whole entry): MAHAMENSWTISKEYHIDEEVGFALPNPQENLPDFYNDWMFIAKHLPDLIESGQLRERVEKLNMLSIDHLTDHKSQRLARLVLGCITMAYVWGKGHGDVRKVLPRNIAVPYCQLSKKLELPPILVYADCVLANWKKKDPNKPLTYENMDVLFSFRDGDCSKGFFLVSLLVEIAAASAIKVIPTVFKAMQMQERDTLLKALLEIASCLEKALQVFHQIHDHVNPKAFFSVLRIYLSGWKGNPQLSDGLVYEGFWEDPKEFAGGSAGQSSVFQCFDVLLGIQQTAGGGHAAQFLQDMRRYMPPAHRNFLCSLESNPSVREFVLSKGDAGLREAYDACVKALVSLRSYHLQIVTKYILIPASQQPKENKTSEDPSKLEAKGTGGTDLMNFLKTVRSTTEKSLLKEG

`CCC(CC(=O)O)c1ccc(N2C[C@@H](C)O[C@@H](C)C2)c(Nc2ccc3c(c2)OC(F)(F)O3)c1` (single isomer, unassigned) [Example 765] and `CCN(c1ccc(C(C)(C)CC(=O)O)cc1Nc1ccc2c(c1)OC(F)(F)O2)C1CCOCC1` [Example 161, 3-(3-((2,2-difluorobenzo[d][1,3]dioxol-5-yl)amino)-4-(ethyl (tetrahydro-2H-pyran-4-yl)amino)phenyl)-3-methylbutanoic acid] cannot be ordered by IC50: less than 50 nM for the first, less than 5 nM for the second.

`CCOc1ncc(Nc2cc([C@@H](CC)CC(=O)O)ccc2N(CC)C2CCOCC2)cn1` (single isomer, unassigned) [Example 455] and `CCCN(c1ccc([C@@H](CC)CC(=O)O)cc1Nc1cnc(OCC)nc1)C1CCOCC1` (single isomer, unassigned) [Example 535] cannot be ordered by IC50: less than 50 nM for the first, less than 5 nM for the second.

`CC[C@H](CC(=O)O)c1ccc(N(CC(C)C)CC(C)C)c(Nc2ccc3nc(C)sc3c2)c1` (single isomer, unassigned) [Example 10] and `CCC(CC(=O)O)c1ccc(N(CC2CC2)C(C)C)c(Nc2ccc3nc(C)sc3c2)c1` (single isomer, unassigned) [Example 716, 3-(4-((Cyclopropylmethyl)(isopropyl)amino)-3-((2-methylbenzo[d]thiazol-6-yl)amino)phenyl)pentanoic acid] cannot be ordered by IC50: greater than 50 nM for the first, greater than 50 nM for the second.

`CCOc1ccc(Nc2cc(C(CC)CC(=O)O)ccc2N2CCOC[C@H]2C(C)C)cc1` (single isomer, unassigned) [Example 894] and `CCOc1ccc(Nc2cc([C@@H](CC)CC(=O)O)ccc2N(CC)C2CCOCC2)cc1` (single isomer, unassigned) [Example 474] cannot be ordered by IC50: less than 50 nM for the first, less than 5 nM for the second.

`CCC(CC(=O)O)c1ccc(N(CC(C)C)C2CCCCC2)c(Nc2ccc(Cl)cc2)c1` (single isomer, unassigned) [Example 308, 3-(3-((4-chlorophenyl)amino)-4-(cyclohexyl (isobutyl)amino)phenyl) pentanoic acid] and `CC[C@H](CC(=O)O)c1ccc(N(CC(C)(C)O)C2CCCCC2)c(Nc2ccc(Cl)cc2)c1` (single isomer, unassigned) [Example 242] cannot be ordered by IC50: less than 5 nM for the first, less than 5 nM for the second.

`CCC(CC(=O)O)c1ccc(N(CC(C)C)C2CCCCC2)c(NC(=O)Cc2ccc(Cl)cc2F)c1` (single isomer, unassigned) [Example 1096 E2] and `COCC(CC(=O)O)c1ccc(N(CC(C)C)C2CCCCC2)c(NC(=O)Cc2ccccc2F)c1` (racemic) [Example 1230, (+/−)-3-(4-(Cyclohexyl(isobutyl)amino)-3-(2-(2-fluorophenyl)acetamido)phenyl)-4-methoxybutanoic acid] cannot be ordered by IC50: less than 5 nM for the first, less than 50 nM for the second.

`CCC(CC(=O)O)c1ccc(N(CC(C)C)C2CCCCC2)c(Nc2ccc(Cl)c(OCC(F)F)c2)c1` (single isomer, unassigned) [Example 643, 3-(3-((4-chloro-3-(2,2-difluoroethoxy)phenyl)amino)-4-(cyclohexyl (isobutyl)amino)phenyl) pentanoic acid] and `CCC(CC(=O)O)c1ccc(N(CC(C)C)C2CCCCC2)c(Nc2ccc(Cl)c(OCC3CC3)c2)c1` (single isomer, unassigned) [Example 645, 3-(3-((4-chloro-3-(cyclopropylmethoxy)phenyl)amino)-4-(cyclohexyl (isobutyl)amino)phenyl) pentanoic acid] cannot be ordered by IC50: less than 5 nM for the first, less than 50 nM for the second.

`CCCN(c1ccc([C@@H](CC)CC(=O)O)cc1Nc1ccc(F)cc1)C1CCOCC1` (single isomer, unassigned) [Example 538] and `CC[C@@H](CC(=O)O)c1ccc(N(CC)C2CCOCC2)c(NC(=O)Nc2ccc(OC)cc2)c1` (single isomer, unassigned) [Example 492] cannot be ordered by IC50: less than 5 nM for the first, less than 50 nM for the second.

`CCC(CC(=O)O)c1cc(NC(=O)Nc2ccc(C)cc2F)c(N(CC(C)C)C2CCCCC2)cc1F` (single isomer, unassigned) [Example 1120, 3-(4-(Cyclohexyl(isobutyl)amino)-2-fluoro-5-(3-(2-fluoro-4-methylphenyl)ureido)phenyl)pentanoic acid] and `CCOc1ccc(NC(=O)Nc2cc(C(CC)CC(=O)O)c(F)cc2N(CC(C)C)CC(C)C)c(F)c1` (racemic) [Example 1137, (±)-3-(4-(Diisobutylamino)-5-(3-(4-ethoxy-2-fluorophenyl)ureido)-2-fluorophenyl)pentanoic acid] cannot be ordered by IC50: less than 5 nM for the first, less than 5 nM for the second.

`COCC(CC(=O)O)c1ccc(N(CC(C)C)C2CCCCC2)c(NC(=O)Nc2cncnc2)c1` (racemic) [Example 990, (+/−)-3-(4-(Cyclohexyl(isobutyl)amino)-3-(3-(pyrimidin-5-yl)ureido)phenyl)-4-methoxybutanoic acid] and `COCC(CC(=O)O)c1cc(F)c(N(CC(C)C)C2CCCCC2)c(NC(=O)Nc2cc(C)on2)c1` (single isomer, unassigned) [Example 1167, 3-(4-(cyclohexyl(isobutyl)amino)-3-fluoro-5-(3-(5-methylisoxazol-3-yl)ureido)phenyl)-4-methoxybutanoic acid] cannot be ordered by IC50: less than 50 nM for the first, less than 5 nM for the second.

`COCC(CC(=O)O)c1ccc(N(CC(C)C)CC(C)C)c(NC(=O)Nc2cc(C)on2)c1` (racemic) [Example 998, (+/−)-3-(4-(Diisobutylamino)-3-(3-(5-methylisoxazol-3-yl)ureido)phenyl)-4-methoxybutanoic acid] and `CCOc1ccc(NC(=O)Nc2cc(C(COC)CC(=O)O)cc(F)c2N(CC(C)C)CC(C)C)cc1` (single isomer, unassigned) [Example 1179, 3-(4-(Diisobutylamino)-3-(3-(4-ethoxyphenyl)ureido)-5-fluorophenyl)-4-methoxybutanoic acid] cannot be ordered by IC50: less than 50 nM for the first, less than 50 nM for the second.

`CCC(CC(=O)O)c1ccc(N(CC(C)C)C2CCCCC2)c(NC(=O)c2ccc(Oc3ccccc3)cc2)c1` (racemic) [Example 1074, 3-(4-(Cyclohexyl(isobutyl)amino)-3-(4-phenoxybenzamido)phenyl)pentanoic acid] and `CCC(CC(=O)O)c1ccc(N(CC(C)C)C2CCCCC2)c(NC(=O)C(F)(F)c2ccc(C)cc2)c1` (racemic) [Example 1075, 3-(4-(Cyclohexyl(isobutyl)amino)-3-(2,2-difluoro-2-(p-tolyl)acetamido)phenyl)pentanoic acid] cannot be ordered by IC50: greater than 50 nM for the first, greater than 50 nM for the second.

`CCOc1ccc(Nc2cc(C(C)CC(=O)O)ccc2N(CC(C)(C)O)C2CCCCC2)c(F)c1` (single isomer, unassigned) [Example 56, 3-(4-(cyclohexyl(2-hydroxy-2-methylpropyl)amino)-3-((4-ethoxy-2-fluorophenyl)amino)phenyl)butanoic acid] and `CC(CC(=O)O)c1ccc(N(CC(C)(C)O)C2CCOCC2)c(Nc2ccc(C#N)cc2)c1` (single isomer, unassigned) [Example 196, 3-(3-((4-Cyanophenyl)amino)-4-((2-hydroxy-2-methylpropyl)(tetrahydro-2H-pyran-4-yl)amino)phenyl)butanoic acid] cannot be ordered by IC50: less than 50 nM for the first, less than 5 nM for the second.

Going from `CCOc1ncc(Nc2cc(C(CC(=O)O)c3ccccc3)ccc2N(CC)C2CCOCC2)cn1` (single isomer, unassigned) [Example 588, 3-(3-((2-Ethoxypyrimidin-5-yl)amino)-4-(ethyl(tetrahydro-2H-pyran-4-yl)amino)phenyl)-3-phenylpropanoic acid] to `CCN(c1ccc([C@@H](COC)CC(=O)O)cc1Nc1cnc(OC)nc1)C1CCOCC1` (single isomer, unassigned) [Example 350], the IC50 falls from greater than 50 nM to less than 50 nM. The second is the more potent here.

First: CCOc1ccc(NC(=O)Nc2cc(C(C)(C)CC(=O)O)ccc2N(CC)C2CCOCC2)cc1 [Example 166, 3-(3-(3-(4-Ethoxyphenyl)ureido)-4-(ethyl(tetrahydro-2H-pyran-4-yl)amino)phenyl)-3-methylbutanoic acid]
Second: CC[C@H](CC(=O)O)c1ccc(N(CC)C2CCOCC2)c(NC(=O)Nc2ccc(OC)cc2F)c1 (single isomer, unassigned) [Example 530]
The IC50 of the first is higher: greater than 50 nM for the first, less than 5 nM for the second. The second is the more potent here.

Going from `CC[C@@H](CC(=O)O)c1ccc(N2CCC[C@H]2C(C)(C)F)c(Nc2ccc(Cl)cc2)c1` (single isomer, unassigned) [Example 788] to `CCC(CC(=O)O)c1ccc(N2CCC[C@@H]2C(C)(C)O)c(Nc2ccc(F)cc2)c1` (single isomer, unassigned) [Example 784], the IC50 rises from less than 5 nM to greater than 50 nM. The first is the more potent here.

`CCC(CC(=O)O)c1cc(F)c(N(CC(C)C)CC(C)C)c(Nc2ccc(OCC3CC3)cc2)c1` (single isomer, unassigned) [Example 106, 3-(3-((4-(cyclopropylmethoxy)phenyl)amino)-4-(diisobutylamino)-5-fluorophenyl)pentanoic acid] and `COCC(CC(=O)O)c1ccc(N(CC2CC2)C2CCOCC2)c(Nc2ccc(C#N)c(C)c2)c1` (single isomer, unassigned) [Example 692, 3-(3-((4-cyano-3-methylphenyl)amino)-4-((cyclopropylmethyl) (tetrahydro-2H-pyran-4-yl)amino)phenyl)-4-methoxybutanoic acid] cannot be ordered by IC50: less than 50 nM for the first, less than 50 nM for the second.

For `CCC(CC(=O)O)c1ccc(N(CC)C2CCCOC2)c(NC(=O)Nc2ccc(C)cc2)c1` (single isomer, unassigned) [Example 73 D1, 3-(4-(Ethyl(tetrahydro-2H-pyran-3-yl)amino)-3-(3-(p-tolyl)ureido)phenyl)pentanoic acid], the IC50 was less than 5 nM.
